Literature values in patent US5883119A, “Triterpene derivatives with immunosuppressant activity” (Merck & Co., Inc., priority 1996, dated 1999).

System: Kv 1.3 channels (CHO cells transfected with Kv 1.3 channels)
Conditions: stated in the method as property of the control blocker

## margatoxin (TIINVKCTSPKQCLPPCKAQFGQSAGAKCMNGKCKCYPH; UniProt P40755 1-39, looked up)
  IC50: 0.1 nM
